Experiments:
A431 cells [1] = experiment: Relative stability at 55° C. measured by stimulation of A431 cellular respiration; format: cell-based, human; conditions: 100 ng of mEGF
Procedure: Referring to FIG. 4, a graph is shown summarizing the results obtained for yEGF(Fraction I) and mEGF.
In preparation for the titration the results of which are shown in FIG. 4, twenty microliter samples of either 100 ng of mEGF or 500 ug of yEGF(Fraction I) were incubated for various times at 55° C. The samples were removed and assayed for their ability to stimulate A431 cell respiration. The procedures for measuring respiration were the same as those which are summarized in relationship to the work leading to FIG. 2.

A431 cells [2] = experiment: A431 cellular respiration assay (Clark oxygen electrode); format: cell-based, human
Procedure: In preparing to carry out the titration the results of which are shown in FIG. 2, 10 cm dishes of A431 cells were washed twice and incubated in 5 ml of DME containing 0.1% bovine serum albumin for 1 hour in a CO2 incubator. The cells were collected by trypsinization and resuspended at 2-3×10^6 cells per ml in DME containing 0.1% bovine serum albumin. One ml of the cell suspension was transferred to a glass tube that as maintained at 37° C. with circulating water. The cells were allowed to equilibrate at temperature for 5 minutes, and a Clark oxygen electrode was inserted into the vessel. Potentiometric readings were continuously taken from the electrode using a YSI oxygraph that was attached to a recorder. […] Respiration was allowed to continue until an accurate rate could be observed on the recorder. The rates of respiration were converted to microliters of oxygen per hour per 2×10^6 cells.
Similarly, the yEGF fractions were titered by measuring their immediate effect on the consumption of oxygen by A431 cells.
The Experimental Over Control (EXP/CON) is the rate of respiration observed with yEGF(Fraction I) divided by the basal respiration rate for that sample.

anti-mEGF antibody = experiment: Anti-murine EGF Elisa titration; format: binding, goat; conditions: Elisa absorbance; significant at <0.1; standard error 0.019
Procedure: One ml of a 100 mg/ml sample of a yeast extract yEGF(Fraction I) was diluted to 10% with trichloroacetic acid (Fisher Scientific no. A322-100) and allowed to stand for 30 minutes on ice. Precipitated material was collected on a centrifuge at 10,000×g for 10 minutes, and washed twice with 95% ethanol. The insoluble material was dissolved in 1 ml of water and dispersed in a 96 well plate by serial dilutions. Unbound antigen was removed after 3 hours at 37° C. and the plate was incubated with monospecific anti-mEGF antibody overnight at 4° C. Excess antibody was removed by washing the plates and a second antibody conjugated to alkaline phosphatase was added to each well. After 3 hours at 37° C., the excess second antibody was removed and the amount of alkaline phosphatase per well was determined. The Elisa test was dependent on the amount of y-EGF present. In preparation of the materials for the titration shown in the graph of FIG. 6, one hundred microliters of PBS was added to each well of a 96 well microtiter plate. Twenty five microliters of 10 mg/ml yEGF was added to the second well of each row. After mixing, 25 microliters was transferred to the third well in the row. The process was repeated until all the wells had dilutions of yEGF. The antigen was allowed to bind at 37° C. for 3 hours and the plate was washed 3 times with PBS containing 0.05% Tween-20(TPBS). […]

human EGF receptor = human EGF receptor (Homo sapiens, UniProt P00533); experiment: Binding to EGF receptor of A431 cells (125I-mEGF competition); conditions: read-out: binding constant (KD), same experiment

“mEGF: pure murine EGF (Collaborative Research no 40001)” was tested, and the “time to loss of ability to stimulate respiration” value (A431 cells [1]) was no more than 10 min, the “% Stimulation of A431 respiration” value (A431 cells [2]; 6.5 ug/ml a-mEGF) was 1.5% and the “% Stimulation of A431 respiration” value (A431 cells [2]; 10 ug/ml murine IGG) was 91.8%. The “% Stimulation of A431 respiration” value (A431 cells [2]; 0.1mM DTT) was 44.8%, the “effect of Dithiotrietol (DTT) on activity” value (A431 cells [2]; DTT) was “enhanced” and the “slope of regression Z=1.512 ug/ml EGF+1.03” value (A431 cells [2]; Z = respiration ratio to control, concentration in ug/ml, intercept 1.03, 98% confidence) was 1.512. For the same substance, the activity after boiling (A431 cells [2]; boiled) was “denatured”, the “% Stimulation of A431 respiration” value (A431 cells [2]; no pretreatment, 0.5 ug/ml mEGF or 1.0 mg/ml yEGF (Fraction I)) was 17.8% and the “% Stimulation of A431 respiration” value (A431 cells [2]; pretreatment 30 min 2 ug/ml ProK) was 1.0%. The “% Stimulation of A431 respiration” value (A431 cells [2]; pretreatment 30 min 2 ug/ml RNase A) was 17.6%, the “% Stimulation of A431 respiration” value (A431 cells [2]; pretreatment 30 min 2ug/ml trypsin) was 1% and the “% Stimulation of A431 respiration” value (A431 cells [2]; pretreatment 30 min 10 ug/ml DNasel) was 18.2%. The “% Stimulation of A431 respiration” value (A431 cells [2]; pretreatment Boiling) was 2.1%, the “regression coefficient: one ug equals 0.0518(ABS)--0.0223” value (anti-mEGF antibody) was 0.0518 and the Kd (human EGF receptor) was 2.42 nM.
